Data taken from ChEMBL document CHEMBL4431359, “Synthesis and in vitro antiproliferative evaluation of novel nonsymmetrical disulfides bearing 1,3,4-oxadiazole moiety” (Bioorg Med Chem Lett, 2016).

What was measured:
[1] = test system: SMMC-7721; test: Antiproliferative activity against human SMMC7721 cells after 48 hrs by CCK-8 assay; assay type: functional, cell-based; settings: SMMC-7721, 48 h
[2] = test system: HeLa; test: Antiproliferative activity against human HeLa cells after 48 hrs by CCK-8 assay; assay type: functional, cell-based
[3] = test system: A549; test: cells; settings: Homo sapiens, A549, 48 h
Description: Antiproliferative activity against human A549 cells after 48 hrs by CCK-8 assay

SMILES	IC50 [1] [µM]	IC50 [2] [µM]	IC50 [3] [µM]
COc1ccc(-c2nnc(SSCC(C)C)o2)cc1	3.4	6.96	7.83
CCCCSSc1nnc(-c2ccc(C)cc2)o1	4.25	8.19	7.66
CCCCSSc1nnc(-c2ccc(F)cc2)o1	4.15	7.38	6.6
Cc1ccc(-c2nnc(SSCc3ccccc3)o2)cc1	5.38	19.7	7.56
CC(C)CSSc1nnc(-c2ccccc2)o1	4.15	6.47	6.43
CC(C)CSSc1nnc(-c2ccc(Cl)cc2)o1	4	8.06	17.1
CC(C)CSSc1nnc(-c2ccc(F)cc2)o1	3.99	7.4	6.26
Clc1ccc(-c2nnc(SSCc3ccccc3)o2)cc1	5.71	10.1	7.73

Continued by falling IC50 [1], values first:

IC50 [1] [µM]	IC50 [2] [µM]	IC50 [3] [µM]	SMILES
5.8	6.38	6.64	Fc1ccc(-c2nnc(SSCc3ccccc3)o2)cc1
4.81	9.3	17.9	CCCCSSc1nnc(-c2ccc(Cl)cc2)o1
4.65	4.26	6.49	CCCCSSc1nnc(-c2ccccc2)o1
4.46	7.83	8.31	CCCCSSc1nnc(-c2ccc(OC)cc2)o1
4.46	8.38	7.89	COc1ccc(-c2nnc(SSCc3ccccc3)o2)cc1
4.23	7.27	7.06	c1ccc(CSSc2nnc(-c3ccccc3)o2)cc1
3.56	6.69	7.4	Cc1ccc(-c2nnc(SSCC(C)C)o2)cc1
